Results as given in patent publication US20210213104A1, “GLUCAGON AND GLP-1 CO-AGONISTS FOR THE TREATMENT OF CHRONIC KIDNEY DISEASE AND DIABETIC KIDNEY DISEASE IN TYPE 2 DIABETES” (MEDIMMUNE LIMITED, priority 2020, published 2021).

System: subjects with T2DM and renal impairment
Test: Phase 2a: continuous glucose monitoring (CGM)
Type: in vivo, human
Conditions: ITT; for Time in target range, LS Mean Change / Percentage of Time CGM Glucose Within Target Range (70-180 mg/dL), Mean / Percentage of Time CGM Glucose Within Target Range (70-180 mg/dL), Median / Time in target range, Change from Baseline (Days −8 to −2), Mean / Time in target range, Change from Baseline (Days −8 to −2), Median / Time in target range, Difference in LS Mean Change (vs Placebo): 100 μg Dose (Days 5 to 11)
Method: Cotadutide was titrated from 50 μg up to 300 μg and administered once daily by subcutaneous (SC) injection over 32 days.
Cotadutide was administered at 50 μg once daily for 4 days, followed by 100 μg daily for 7 days, 200 μg daily for 7 days, and 300 μg daily for 14 days (n=20). Placebo was administered one daily for 32 days (n=20). Cotadutide and placebo were administered in the morning. Dosing commenced following predose baseline vital signs, blood tests (including HbA1c), an electrocardiogram (ECG), body weight measurement, and bioimpedance spectroscopy (BIS). Subjects then returned for daily dosing or remained overnight locally until Day 5, and thereafter, had visits at weekly intervals until a maintenance dose of 300 μg was established. Thus, Cotadutide or placebo was administered at the study site by study personal for the first four doses and on site on Days 5, 12, 19, and 32. At all other times, subjects preformed dosing at home.
A Freestyle Libre® Pro CGM device was used to measure interstitial glucose levels. […] Data generated by CGM was used at visits to adjust insulin doses and other treatments.
The CGM sensor, which is a small plastic circular device of 35 mm diameter and 5 mm depth, was applied to the back of the upper arm. Subjects wore the CGM sensor continuously up until the time of a sensor change, which was to occur within 14 days, and they were advised that they could bathe and shower, and swim in up to 3 m depth for up to 30 minutes while wearing the CGM sensor. When the CGM sensor was removed, a new CGM sensor could be reapplied, ideally close to the original site, but with the subject's site preference taken into account. CGM sensors were single-use only.
If a subject was unable to tolerate wearing the CGM sensor for the entire duration of the study, the sensor was removed; but the subject was to remain in the study with or without continued CGM and could instead be instructed to monitor capillary plasma glucose measurements four times per day (before meals and before bedtime) and record these levels in the diary provided.
Subjects underwent continuous glucose monitoring (CGM) starting from Day −14 to Day 40 (±5 days), with sensor changes within 14-day intervals. CGM readings were used to analyze change in average CGM glucose and glucose AUC7 d, coefficient of variation as a marker of glycemic variability, and time spent in target glucose range and hypoglycemia, to enable comparison across different dose levels.

[1] = 50 μg (Days 1 to 4, not 7 days), baseline Days −8 to −2, ANCOVA
[2] = 100 μg (Days 5 to 11), baseline Days −8 to −2, ANCOVA
[3] = 100 μg (Days 5 to 11), baseline Days −8 to −2

For `CCCCCCCCCCCCCCCC(=O)N[C@@H](CCC(=O)NCCCC[C@H](NC(=O)[C@H](CC(=O)O)NC(=O)[C@H](CO)NC(=O)[C@@H](NC(=O)[C@H](Cc1ccccc1)NC(=O)[C@@H](NC(=O)CNC(=O)[C@H](CCC(N)=O)NC(=O)[C@H](CO)NC(=O)[C@@H](N)Cc1c[nH]cn1)[C@@H](C)O)[C@@H](C)O)C(=O)N[C@@H](CO)C(=O)N[C@@H](CCC(=O)O)C(=O)N[C@@H](Cc1ccc(O)cc1)C(=O)N[C@@H](CC(C)C)C(=O)N[C@@H](CC(=O)O)C(=O)N[C@@H](CO)C(=O)N[C@@H](CCC(=O)O)C(=O)N[C@@H](CCCNC(=N)N)C(=O)N[C@@H](C)C(=O)N[C@@H](CCCNC(=N)N)C(=O)N[C@@H](CC(=O)O)C(=O)N[C@@H](Cc1ccccc1)C(=O)N[C@H](C(=O)N[C@@H](C)C(=O)N[C@@H](Cc1c[nH]c2ccccc12)C(=O)N[C@@H](CC(C)C)C(=O)N[C@@H](CCC(=O)O)C(=O)N[C@@H](C)C(=O)NCC(=O)NCC(=O)O)C(C)C)C(=O)O` [Cotadutide], the “Percentage of time CGM Glucose in Clinically Significant Hypoglycemia (<54 mg/dL), Difference in LS Mean Change (vs Placebo)” value [1] was 5.28%, the “Percentage of time CGM Glucose in Clinically Significant Hypoglycemia (<54 mg/dL), LS Mean Change” value [1] was 4.79% and the “Average CGM Glucose Over 7-Day Periods, End of Dosing Period, Mean” value (100 μg (Days 5 to 11)) was 127.599 mg/dL. The “Average CGM Glucose Over 7-Day Periods, End of Dosing Period, Median” value (100 μg (Days 5 to 11)) was 122.769 mg/dL, the “Percentage of time CGM Glucose in Hyperglycemia (>180 mg/dL), End of Dosing Period, Mean” value (100 μg (Days 5 to 11)) was 10.46% and the “Percentage of time CGM Glucose in Hyperglycemia (>180 mg/dL), End of Dosing Period, Median” value (100 μg (Days 5 to 11)) was 3.72%. The “Average CGM Glucose Over 7-Day Periods, Difference in LS Mean Change (vs Placebo)” value [2] was -46.73 mg/dL, the “Average CGM Glucose Over 7-Day Periods, LS Mean Change” value [2] was -36.35 mg/dL and the “Percentage of time CGM Glucose in Clinically Significant Hypoglycemia (<54 mg/dL), Difference in LS Mean Change (vs Placebo)” value [2] was 2.25%. For the same compound, the “Percentage of time CGM Glucose in Clinically Significant Hypoglycemia (<54 mg/dL), LS Mean Change” value [2] was 1.41%, the “Percentage of time CGM Glucose in Hyperglycemia (>180 mg/dL), Difference in LS Mean Change (vs Placebo)” value [2] was −29.72% and the “Percentage of time CGM Glucose in Hyperglycemia (>180 mg/dL), LS Mean Change” value [2] was −24.62%. The “Percentage of time CGM Glucose in Hypoglycemia (<70 mg/dl), Difference in LS Mean Change (vs Placebo)” value [2] was 2.80%, the “Percentage of time CGM Glucose in Hypoglycemia (<70 mg/dl), LS Mean Change” value [2] was 2.26% and the “Average CGM Glucose Over 7-Day Periods, Change from Baseline to End of Dosing Period, Mean” value [3] was -35.628 mg/dL. For the same compound, the “Average CGM Glucose Over 7-Day Periods, Change from Baseline to End of Dosing Period, Median” value [3] was -31.685 mg/dL, the “Percentage of time CGM Glucose in Hyperglycemia (>180 mg/dL), Change from Baseline to End of Dosing Period, Mean” value [3] was −24.45% and the “Percentage of time CGM Glucose in Hyperglycemia (>180 mg/dL), Change from Baseline to End of Dosing Period, Median” value [3] was −19.57%. The “Time in target range, LS Mean Change” value (ANCOVA, Insulin Dose < 20 U/day) was 26.25%, the “Time in target range, LS Mean Change” value (ANCOVA, Insulin Dose ≥ 20 U/day) was 3.59% and the “Time in target range, LS Mean Change” value (ANCOVA, Total) was 12.25%. For the same compound, the “Percentage of Time CGM Glucose Within Target Range (70-180 mg/dL), Mean” value (shortened to “Percentage … (70-180 mg/dL), Mean”) (Insulin Dose < 20 U/day) was 94.44%, the “Percentage of Time CGM Glucose Within Target Range (70-180 mg/dL), Median” value (shortened to “Percentage … (70-180 mg/dL), Median”) (Insulin Dose < 20 U/day) was 97.79% and the “Time in target range, Change from Baseline (Days −8 to −2), Mean” value (“Time in target range, Change … Mean” for short) (Insulin Dose < 20 U/day) was 31.19%. The “Time in target range, Change from Baseline (Days −8 to −2), Median” value (from here on “Time in target range, Change … Median”) (Insulin Dose < 20 U/day) was 33.99%, the “Time in target range, Difference in LS Mean Change (vs Placebo)” value (Insulin Dose < 20 U/day) was 44.84% and the “Percentage … (70-180 mg/dL), Mean” value (Insulin Dose ≥ 20 U/day) was 66.51%. The “Percentage … (70-180 mg/dL), Median” value (Insulin Dose ≥ 20 U/day) was 77.04%, the “Time in target range, Change … Mean” value (Insulin Dose ≥ 20 U/day) was 2.53% and the “Time in target range, Change … Median” value (Insulin Dose ≥ 20 U/day) was 12.04%. For the same compound, the “Time in target range, Difference in LS Mean Change (vs Placebo)” value (Insulin Dose ≥ 20 U/day) was 8.32%, the “Percentage … (70-180 mg/dL), Mean” value (Total) was 75.82% and the “Percentage … (70-180 mg/dL), Median” value (Total) was 84.38%. For the same compound, the “Time in target range, Change … Mean” value (Total) was 11.58% and the “Time in target range, Change … Median” value (Total) was 14.94%.
